Test results reported in patent US5679787A, “Process for isomerization of compound of aldose structure into compound of ketose structure, and isomerization agent or accelerator used therein” (priority 1992, dated 1997).

What was measured:
[1] = Isomerization of glucose without enzyme, weakly alkaline electrolytic water or NaOH (Example 2)
Experimental: Water was passed through an apparatus for electrolysis [e.g. Microcluster (trade name) manufactured by Asahi Glass Co., Ltd.]. The alkaline portion of the resulting electrolytic water was taken to use as a weakly alkaline electrolytic water.
14 g or 28 g of anhydrous glucose was dissolved in about 80 ml of the weakly alkaline electrolytic water prepared above. The same electrolytic water was further added to make the total volume 100 ml, whereby a 14% glucose solution and a 28% glucose solution were prepared. The 14% glucose solution had pH 9.1 and the 28% glucose solution had pH 8.61, right after the preparation.
1.847 g of the organogermanium compound (18) was weighed and added to about 2 ml of deionized water. The mixture was made weakly alkaline (pH 8.00 or 8.53) with a small amount of sodium hydroxide. The same deionized water was further added to make the total volume of 3 ml. The final concentration of the compound (18) in the solution was 1.67M.
(§1) 200 μl of the 14% or 28% glucose solution and 200 μl of the organogermanium compound solution (pH 8.00 or 8.53) were placed in a small test tube. Also, 200 μl of the 14% or 28% glucose solution and 200 μl of the weakly alkaline electrolytic water were placed in a small test tube. Each test tube was thoroughly shaken and then placed in a water bath of 80° C. to give rise to a reaction. 1-3 hours later, 50 μl of the reaction mixture was added to 50 μl of 0.5N HClO4 to terminate the reaction. Thereafter, the mixture was diluted 100-fold with deionized water to determine the amount of formed fructose and the amount of residual glucose by high-performance liquid chromatography using 7A (a column) manufactured by Shimadzu Corp.

[2] = test system: glucose isomerase; test: Enzymatic isomerization of glucose into fructose in presence of organogermanium compound (Example 1); format: biochemical, Streptomyces griseofuscus S-41; details: 60° C., pH 8.0, substrate solution 40% glucose and 1.2M organogermanium compound, blank 50%
Experimental: A solution containing 40% glucose and 1.2M organogermanium compound was prepared according to the following procedure. 0.8 g of anhydrous glucose was dissolved in 0.8 ml of deionized water. To the solution was added, in small portions, 0.407 g of the organogermanium compound (1) as an isomerization accelerator of the present invention [a compound represented by formula (II) wherein n=1, R1 =R2 =R3 and X1 =OH] while the pH of the solution was maintained at very weak alkalinity, to completely dissolve the compound in the solution. Thereto was added 4.9 mg of magnesium sulfate, and the pH of the resulting mixture was adjusted to 8.0. Then, deionized water was added to make the total volume 2.0 ml, whereby a substrate solution was prepared.
Two other substrate solutions containing the organogermanium compounds (18) [a compound represented by formula (II) wherein n=1, R1 =R2 =H, R3 =NH2 and X1 =OH] and (23) [a compound represented by formula (II) wherein n=1, R1 =H, R2 =C6 H5, R3 =NH2 and X1 =OH], respectively, were prepared in the same manner as above except that the organogermanium compounds (18) and (23) were used in amounts of 0.443 g and 0.638 g, respectively (these amounts corresponded to 1.2M of germanium).
An isomerization enzyme (glucose isomerase) extracted from the cells of Streptomyces griseofuscus S-41 was purified according to a known method using an ion exchange column, a gel filtration column or the like, until a single band was obtained electrophoretically. The resulting purified enzyme was used as a standard enzyme.
In a small test tube were placed 0.7 ml of the above substrate solution, 0.1 ml of a 200 mM MOPS buffer solution (pH 8.0) and 0.2 ml of a solution containing the above-prepared standard enzyme (5.69 mg/ml). […] The amount of formed fructose in the microvial was determined by high-performance liquid chromatography using a column [LC7A, SCR-101 (N) manufactured by Shimadzu Corp.] to examine the change with time, of ratio of isomerization of glucose into fructose.

[3] = Isomerization without enzyme (Example 3), arabinose; details: remark (2):, initial pH 10.0-10.6; for Isomerization ratio Arabinose NaOH: blank 3.9-19.5%; for Isomerization ratio Arabinose Electrolytic water: blank 0.4-1.2%
[4] = Isomerization without enzyme (Example 3), glucose; details: remark (1): initial pH 8.0-8.53; for Isomerization ratio Glucose NaOH: blank 32.3%; for Isomerization ratio Glucose Electrolytic water: blank 2.1-3.1%
Experimental: as §1, with “1-3 hours later, 50 μl of the reaction mixture was added to 50 μl of 0.5N HClO4 to terminate the reaction.” left out, “Corp. […]” for “Corp.”

[5] = Isomerization without enzyme (Example 3), mannose; details: remark (2): reaction time 6 h, initial pH 10.0-10.6; for Isomerization ratio Mannose NaOH: blank 3.9-19.5%; for Isomerization ratio Mannose Electrolytic water: blank 0.4-1.2%
[6] = Isomerization without enzyme (Example 3), ribose; details: remark (2): reaction time 6 h, initial pH 10.0-10.6; for Isomerization ratio Ribose NaOH: blank 3.9-19.5%; for Isomerization ratio Ribose Electrolytic water: blank 0.4-1.2%
[7] = Isomerization without enzyme (Example 3), maltose; details: remark (3): reaction time 6 h, initial pH 10.0-11.0; for Isomerization ratio Maltose NaOH: blank 34.0-38.6%; for Isomerization ratio Maltose Electrolytic water: blank 0-0.4%
[8] = Isomerization without enzyme (Example 3), lactose; details: remark (3): reaction time 6 h, initial pH 10.0-11.0; for Isomerization ratio Lactose NaOH: blank 34.0-38.6%; for Isomerization ratio Lactose Electrolytic water: blank 0-0.4%
[9] = Isomerization without enzyme (Example 3), xylose; details: remark (2): reaction time 6 h, initial pH 10.0-10.6; for Isomerization ratio Xylose NaOH: blank 3.9-19.5%; for Isomerization ratio Xylose Electrolytic water: blank 0.4-1.2%
Experimental: [The procedure below names another target; the source says it served here with some conditions changed.] as §1
Other compounds represented by formula (I) were subjected to 3-hour isomerization in the same manner as in Example 2.

## NC([CH2][Ge](=[O])[O][Ge](=[O])[CH2]C(N)C(=O)O)C(=O)O (centres unmarked) [Compound 18]
[1]; Run 1 (Ge), glucose concentration 14%, pH of reaction mixture 7.17, electrolytic water, 80° C., 1-3 hours
  Isomerization ratio (%): 48.0%
[1]; Run 3 (Ge), glucose concentration 7%, pH of reaction mixture 7.52, electrolytic water, 80° C., 1-3 hours
  Isomerization ratio (%): 73.1%
[1]; Run 5 (Ge), glucose concentration 14%, pH of reaction mixture 7.81, electrolytic water, 80° C., 1-3 hours
  Isomerization ratio (%): 65.0%
[1]; Run 7 (Ge), glucose concentration 7%, pH of reaction mixture 8.15, electrolytic water, 80° C., 1-3 hours
  Isomerization ratio (%): 94.7%
[1]; Run 9 (Na, Ge), sodium hydroxide, glucose concentration 14%, pH of reaction mixture 8.61, 80° C.
  Isomerization ratio (%): 98.9%
[2]
  isomerization ratio in equilibrium: 80%

## O=C(O)C[CH](c1ccccc1)[Ge](=[O])[O][Ge](=[O])[CH](CC(=O)O)c1ccccc1 (centres unmarked) [Compound 6]
[3]
  Isomerization ratio Arabinose NaOH: 24.4%
  Isomerization ratio Arabinose Electrolytic water: 13.4%
[4]
  Isomerization ratio Glucose NaOH: 94.8%
  Isomerization ratio Glucose Electrolytic water: 83.8%
[5]
  Isomerization ratio Mannose NaOH: 22.8%
  Isomerization ratio Mannose Electrolytic water: 16.4%
[6]
  Isomerization ratio Ribose NaOH: 40.1%
  Isomerization ratio Ribose Electrolytic water: 11.3%
[7]
  Isomerization ratio Maltose NaOH: 69.3%
  Isomerization ratio Maltose Electrolytic water: 20.0%
[8]
  Isomerization ratio Lactose NaOH: 73.6%
  Isomerization ratio Lactose Electrolytic water: 15.5%
[9]
  Isomerization ratio Xylose NaOH: 33.2%
  Isomerization ratio Xylose Electrolytic water: 8.3%

## CC([CH2][Ge](=[O])[O][Ge](=[O])[CH2]C(C)C(=O)O)C(=O)O (centres unmarked) [Compound 3]
[3]
  Isomerization ratio Arabinose NaOH: 18.5%
  Isomerization ratio Arabinose Electrolytic water: 10.2%
[4]
  Isomerization ratio Glucose NaOH: 96.3%
  Isomerization ratio Glucose Electrolytic water: 86.2%
[5]
  Isomerization ratio Mannose NaOH: 21.3%
  Isomerization ratio Mannose Electrolytic water: 9.3%
[6]
  Isomerization ratio Ribose NaOH: 30.0%
  Isomerization ratio Ribose Electrolytic water: 17.4%
[7]
  Isomerization ratio Maltose NaOH: 53.7%
  Isomerization ratio Maltose Electrolytic water: 43.7%
[8]
  Isomerization ratio Lactose NaOH: 74.1%
  Isomerization ratio Lactose Electrolytic water: 28.9%
[9]
  Isomerization ratio Xylose NaOH: 24.5%
  Isomerization ratio Xylose Electrolytic water: 7.6%

## C[C](C)(CC(=O)O)[Ge](=[O])[O][Ge](=[O])[C](C)(C)CC(=O)O [Compound 5]
[3]
  Isomerization ratio Arabinose NaOH: 17.8%
  Isomerization ratio Arabinose Electrolytic water: 3.4%
[4]
  Isomerization ratio Glucose NaOH: 93.4%
  Isomerization ratio Glucose Electrolytic water: 75.3%
[5]
  Isomerization ratio Mannose NaOH: 20.5%
  Isomerization ratio Mannose Electrolytic water: 9.7%
[6]
  Isomerization ratio Ribose NaOH: 37.6%
  Isomerization ratio Ribose Electrolytic water: 8.6%
[7]
  Isomerization ratio Maltose NaOH: 69.4%
  Isomerization ratio Maltose Electrolytic water: 38.4%
[8]
  Isomerization ratio Lactose NaOH: 68.8%
  Isomerization ratio Lactose Electrolytic water: 17.2%
[9]
  Isomerization ratio Xylose NaOH: 20.3%
  Isomerization ratio Xylose Electrolytic water: 6.1%

## CC(C(=O)O)[CH](C)[Ge](=[O])[O][Ge](=[O])[CH](C)C(C)C(=O)O (centres unmarked) [Compound 4]
[3]
  Isomerization ratio Arabinose NaOH: 14.3%
  Isomerization ratio Arabinose Electrolytic water: 7.0%
[4]
  Isomerization ratio Glucose NaOH: 96.4%
  Isomerization ratio Glucose Electrolytic water: 77.6%
[5]
  Isomerization ratio Mannose NaOH: 22.4%
  Isomerization ratio Mannose Electrolytic water: 10.6%
[6]
  Isomerization ratio Ribose NaOH: 36.3%
  Isomerization ratio Ribose Electrolytic water: 10.3%
[7]
  Isomerization ratio Maltose NaOH: 46.5%
  Isomerization ratio Maltose Electrolytic water: 36.2%
[8]
  Isomerization ratio Lactose NaOH: 66.4%
  Isomerization ratio Lactose Electrolytic water: 17.7%
[9]
  Isomerization ratio Xylose NaOH: 22.3%
  Isomerization ratio Xylose Electrolytic water: 7.0%

## C[CH](CC(=O)O)[Ge](=[O])[O][Ge](=[O])[CH](C)CC(=O)O (centres unmarked) [Compound 2]
[3]
  Isomerization ratio Arabinose NaOH: 20.3%
  Isomerization ratio Arabinose Electrolytic water: 10.1%
[4]
  Isomerization ratio Glucose NaOH: 97.9%
  Isomerization ratio Glucose Electrolytic water: 95.8%
[5]
  Isomerization ratio Mannose NaOH: 22.6%
  Isomerization ratio Mannose Electrolytic water: 11.4%
[6]
  Isomerization ratio Ribose NaOH: 41.8%
  Isomerization ratio Ribose Electrolytic water: 12.8%
[7]
  Isomerization ratio Maltose NaOH: 67.4%
  Isomerization ratio Maltose Electrolytic water: 44.4%
[8]
  Isomerization ratio Lactose NaOH: 68.3%
  Isomerization ratio Lactose Electrolytic water: 43.4%
[9]
  Isomerization ratio Xylose NaOH: 20.3%
  Isomerization ratio Xylose Electrolytic water: 7.2%

## NC(C(=O)O)[CH](c1ccccc1)[Ge](=[O])[O][Ge](=[O])[CH](c1ccccc1)C(N)C(=O)O (centres unmarked) [Compound 23]
[2]
  isomerization ratio in equilibrium: 99%
